Assay results published in the supplement of paper PMC10307832.

Tests used:
Test in all cases: relative viability (nuclei count vs DMSO), 5 days (fraction); higher = more cells survive
GSK-J4 + Olaparib = compound: CCOC(=O)CCNc1cc(N2CCc3ccccc3CC2)nc(-c2ccccn2)n1 [GSK-J4] + O=C(c1cc(Cc2n[nH]c(=O)c3ccccc23)ccc1F)N1CCN(C(=O)C2CC2)CC1 [Olaparib] (partner 8 µM)
How it was run: (§1)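 A single step with final 0.05% Triton X-100, 1% formaldehyde and 1 ug/ml Hoechst fixed the cells and stained nuclei 5 days after treatment. Lung cancer cell lines in 1536-well plates had been treated by pin tool the day after seeding with one drug alone or a fixed anchor-drug dose plus five library-drug doses (not always all listed) in √10 steps, and nuclei were counted on 4× images. Relative viability is the ratio of nuclei in treated wells to nuclei in vehicle wells, taken as the median of duplicate plates.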

GSK-J4 + Lapatinib = compound: CCOC(=O)CCNc1cc(N2CCc3ccccc3CC2)nc(-c2ccccn2)n1 [GSK-J4] + CS(=O)(=O)CCNCc1ccc(-c2ccc3ncnc(Nc4ccc(OCc5cccc(F)c5)c(Cl)c4)c3c2)o1 [Lapatinib] (partner 2 µM)
How it was run: as §1

GSK-J4 + Tozasertib = compound: CCOC(=O)CCNc1cc(N2CCc3ccccc3CC2)nc(-c2ccccn2)n1 [GSK-J4] + Cc1cc(Nc2cc(N3CCN(C)CC3)nc(Sc3ccc(NC(=O)C4CC4)cc3)n2)n[nH]1 [Tozasertib] (partner 0.1 µM)
How it was run: as §1

GSK-J4 + Bortezomib = compound: CCOC(=O)CCNc1cc(N2CCc3ccccc3CC2)nc(-c2ccccn2)n1 [GSK-J4] + CC(C)C[C@H](NC(=O)[C@H](Cc1ccccc1)NC(=O)c1cnccn1)B(O)O [Bortezomib] (partner 0.002 µM)
How it was run: as §1

Cell Line | relative viability (GSK-J4 + Olaparib; first compound 0.5 µM) | relative viability (GSK-J4 + Olaparib; first compound 1.581 µM) | relative viability (GSK-J4 + Olaparib; first compound 5 µM) | relative viability (GSK-J4 + Olaparib; first compound 15.81 µM) | relative viability (GSK-J4 + Olaparib; first compound 50 µM) | relative viability (GSK-J4 + Lapatinib; first compound 0.5 µM) | relative viability (GSK-J4 + Lapatinib; first compound 1.581 µM) | relative viability (GSK-J4 + Lapatinib; first compound 5 µM) | relative viability (GSK-J4 + Lapatinib; first compound 15.81 µM) | relative viability (GSK-J4 + Lapatinib; first compound 50 µM) | relative viability (GSK-J4 + Tozasertib; first compound 0.5 µM) | relative viability (GSK-J4 + Tozasertib; first compound 1.581 µM) | relative viability (GSK-J4 + Tozasertib; first compound 5 µM) | relative viability (GSK-J4 + Tozasertib; first compound 15.81 µM) | relative viability (GSK-J4 + Tozasertib; first compound 50 µM) | relative viability (GSK-J4 + Bortezomib; first compound 0.5 µM) | relative viability (GSK-J4 + Bortezomib; first compound 1.581 µM) | relative viability (GSK-J4 + Bortezomib; first compound 5 µM) | relative viability (GSK-J4 + Bortezomib; first compound 15.81 µM) | relative viability (GSK-J4 + Bortezomib; first compound 50 µM)
NCI-H322M | 0.829 | 0.729 | 0.935 | 0.782 | 0.658 | 0.533 | 0.623 | 0.842 | 0.514 | 0.528 | 0.457 | 0.393 | 0.484 | 0.442 | 0.507 | 1.3 | 1.03 | 1.67 | 1.11 | 1.02
NCI-H1915 | 0.279 | 0.229 |  | 0.224 | 0.257 | 0.963 | 0.802 | 0.83 | 0.941 | 0.961 | 0.404 | 0.395 |  | 0.409 | 0.337 | 0.883 | 0.924 | 0.661 | 0.931 | 1.01
HOP-62 | 0.394 | 0.333 | 0.426 | 0.491 | 0.28 | 0.701 | 0.689 | 0.846 | 1.02 | 0.86 | 0.344 | 0.335 | 0.358 | 0.339 | 0.24 | 0.688 | 0.532 | 0.73 | 0.74 | 0.823
LXF-289 | 1.03 | 1.01 | 1.14 | 0.991 | 0.891 | 0.899 | 0.821 | 0.907 | 0.934 | 0.866 | 0.198 | 0.154 | 0.132 | 0.166 | 0.204 | 0.952 | 0.866 | 1 | 0.994 | 1.02
BEN | 1.18 | 0.99 | 0.776 | 0.954 | 0.779 | 0.657 | 0.622 |  | 0.764 | 0.635 | 0.514 | 0.41 | 0.609 | 0.375 | 0.492 | 0.898 | 0.719 |  | 0.857 | 0.735
NCI-H2009 | 0.603 | 0.638 | 0.556 | 0.593 | 0.449 | 0.828 | 0.144 | 0.56 | 0.971 | 0.739 | 0.69 | 0.663 | 0.681 | 0.717 | 0.306 | 0.837 | 0.329 | 0.58 | 0.962 | 0.398
NCI-H1755 | 0.853 | 0.754 | 0.841 | 0.859 | 0.687 | 0.96 | 0.905 | 0.673 | 0.923 | 0.917 | 0.585 | 0.582 | 0.553 | 0.531 | 0.581 | 0.937 | 0.813 | 0.649 | 0.886 | 0.905
NCI-H520 | 0.32 | 0.278 | 0.354 | 0.332 | 0.29 | 0.846 | 0.515 | 0.939 | 0.74 | 0.658 | 0.439 |  | 0.497 | 0.39 | 0.425 | 0.553 | 0.316 | 0.299 | 0.509 | 0.556
